# Publication PMC12003248, “ERCC6L2 mitigates replication stress and promotes centromere stability” (Cell Reports, 2023)
# Where no end group is shown, it is not given here.
# B1: ERCC6L2^1053−1247: purified His-tagged ERCC6L2 fragment containing the VIGS motif (protein, UniProt Q5T890 1053-1247, looked up, fragment)
# chain: FSFSKQSHRPRTIRDRTSFSSKLPSHNKKNSTFIPRKPMKCSNEKVVNQEQSYESMDKFLDGVQEVAYIHSNQNVIGSSKAENHMSRWAAHDVFELKQFSQLPANIAVCSSKTYKEKVDADTLPHTKKGQQPSEGSISLPLYISNPVNQKKKKVYHTNQTTFIIGETPKGIRRKQFEEMASYFNSSSVNEFAKHI
# modifications: His tag
# notes: purified His-tagged ERCC6L2 fragment containing the VIGS motif
# B2: GST-tagged ERCC6L2^753−819: GST-tagged ERCC6L2 fragment (residues 753–819) expressed in E. coli (protein)
# chain: AAEPLAKEACDLCSDFSDEEPVGATGIKTAKNKAPDSSKASSSPGQLTLLQCGFSKLLETKCKAVED
# modifications: left off: GST, end not stated, kept
# notes: GST-tagged ERCC6L2 fragment (residues 753–819) expressed in E. coli
# B3: ERCC6L2^701−1053: Strep-tagged ERCC6L2 fragment (protein)
# chain: QGSCLTKDILEREGQVEAGIMTATTWLKEGPPAHKLEMPRQPDCQECRGTEQAAEPLAKEACDLCSDFSDEEPVGATGIKTAKNKAPDSSKASSSPGQLTLLQCGFSKLLETKCKAVEDSDGNTASDDESSDEQPTCLSTEAKDAGCEKNQDSLGTSKHQKLDNILNPKEKHIFYKSEKILEQNISSKSDEKKIKNTDKHCILQNVTESEDSDVICPTQYTTERFPDNSIRFKPPLEGSEDSETEHTVKTRNNDNSRNTDDKRNGIISKKLSPENTTLKSILKRKGTSDISDESDDIEISSKSRVRKRASSLRFKRIKETKKELHNSPKTMNKTNQVYAANEDHNSQFIDDYS
# modifications: left off: Strep tag, end not stated, kept
# notes: Strep-tagged ERCC6L2 fragment
# Tests used:
# Polα = conditions: cited from earlier work
# Text: Because centromeres impose specific challenges for DNA replication machinery, we next sought to address the impact of ERCC6L2 deficiency on the progression of DNA replication. […] However, further analyses, based on EdU incorporation over longer time frames, highlighted differences between the two cell lines. Loss of ERCC6L2 reduced efficiency of EdU incorporation in unperturbed c ...
# His-tagged human PCNA [1] = assay: PCNA pull-down with biotinylated peptides; type: binding; conditions: biotinylated peptide on streptavidin beads; purified His-tagged PCNA, 1 h at 4°C; 50 mM Tris-HCl pH 8, 150 mM NaCl, 1 mM DTT, 0.2% Triton X-; anti-PCNA western blot
# Text: (§1) Figure 4 ERCC6L2 contains an atypical PCNA-binding motif (A) ERCC6L2 colocalizes with PCNA at CENP-C-negative foci. U2OS cells transfected with YFP-ERCC6L2 were stained for CENP-C and PCNA after pre-extraction of soluble proteins. ERCC6L2-and PCNA-positive, but CENP-C negative foci (red arrows) are marked in zoomed images. (B) ERCC6L2 colocalizes with RPA at CENP-C-negative foci. U2OS cells transfected with YFP-ERCC6L2 were stained for CENP-C and RPA. ERCC6L2- and RPA-positive, but CENP-C-negative foci (red arrows) are marked in zoomed images. (C) Colocalization of the C-terminal ERCC6L2^701−1561 fragment with endogenous PCNA. (D) PCNA pull-down with biotinylated peptides. Biotinylated PIP-box and APIM motif peptides were bound to streptavidin beads and incubated with recombinant PCNA. Interactions were assayed by western blotting with PCNA antibody. Wild-type ZRANB3 PIP-box peptide (ZRANB3 PIP) was used as a positive control. Mutant ZRANB3 PIP-box peptide (Q519A, F525A, and F526A, ZRANB3 PIP^∗) served as a negative control. […] Interactions were assessed by western blotting against PCNA (shown on the right). […]
# Custom synthetic biotinylated peptides were synthetised by Genscript and dissolved in 50 mM Tris-HCl pH 8, 150 mM NaCl. […] Finally, the beads were boiled in the SDS-PAGE loading buffer, and analyzed by anti-PCNA Western blotting (1:1000 dilution).
# endogenous PCNA [2] = assay: Colocalization of YFP-ERCC6L2 constructs with endogenous PCNA; type: cell-based, human; conditions: YFP-tagged, U2OS cells
# Text: as §1
# U2OS cells (ATCC) were grown in 24 well plates. […] Samples were analyzed by confocal microscopy using Olympus FV1200 or Zeiss 880 Airyscan microscopes, or using EVOS M7000 Imaging System. […]
# laser-induced DNA breaks = assay: Recruitment to laser-induced DNA breaks; type: cell-based, human; conditions: U2OS cells, 405 nm laser, 10 μM BrdU 16 h
# Procedure: U2OS cells were grown in glass-bottomed 24 well plates and transfected with YFP-ERCC6L2 constructs using Lipofectamine 2000 (Life Technologies). Transfected cells were then incubated with 10 μM BrdU for 16 h at 37°C. Laser microirradiation was carried out on an Olympus FV1200 confocal microscope equipped with an environmental chamber. Localised DNA damage was induced in cells showing YFP-tagged protein expression using a 405 nm laser. Recruitment of the proteins was monitored by live cell imaging at 488 nm.
# [3] = system: single-stranded DNA derived from α-satellite DNA sequence; assay: EMSA, single-stranded DNA; type: binding; conditions: His-tagged fragment; 2.5 nM labeled substrate; 30 min, room temperature; 50 mM Tris-HCl pH 7.5; 11, 22, 44, 88, 176 nM (legend Figure 1H)
# [4] = system: double-stranded DNA derived from α-satellite DNA sequence; assay: EMSA, double-stranded DNA; type: binding; conditions: His-tagged fragment; 2.5 nM labeled substrate; 30 min, room temperature; 50 mM Tris-HCl pH 7.5; 11, 22, 44, 88, 176 nM (legend Figure 1H)
# His-tagged human PCNA [5] = assay: PCNA pull-down with GST-tagged fragment; type: binding; conditions: GST-tagged fragment on GST beads, 1 h at 4°C, 50 mM Tris-HCl pH 8, 150 mM NaCl, 1 mM DTT, 0.2% Triton X-, western blot
# endogenous PCNA [6] = assay: Immunoprecipitation of Strep-tagged ERCC6L2 fragment, endogenous PCNA; type: binding, human; conditions: 293T cells, Twin-Strep construct, StrepTactin beads, immunoblot
molecule,measurement,setting,value
O=C(O)c1ccc2cc(-c3ccc(O)c(C45CC6CC(CC(C6)C4)C5)c3)ccc2c1 [CD437],uncoupling of DNA synthesis,Polα,causes uncoupling of leading and lagging strand DNA synthesis
"ERCC6L2^790−811 peptide: atypical ERCC6L2 peptides (residues 790–811) containing the WT sequence (LLQCGFSKLLETKCKAVEDSDG; cysteine pairing not given here; also: biotinylated, position not given here; UniProt Q5T890 790-811, looked up, fragment)","interaction with PCNA, pull-down",His-tagged human PCNA [1],comparable to the one observed with the classical PIP-box peptide from ZRANB3
"full-length ERCC6L2: full-length human ERCC6L2, YFP-tagged",colocalization with endogenous PCNA,endogenous PCNA [2],largely absent from PCNA foci in S-phase cells
same,mobilization to laser-induced DNA breaks,laser-induced DNA breaks,efficient mobilization
B1,formation of nucleoprotein complexes with single-stranded DNA (EMSA),[3],formed stable nucleoprotein complexes
same,formation of nucleoprotein complexes with double-stranded DNA (EMSA),[4],formed stable nucleoprotein complexes
B2,"interaction with PCNA, GST pull-down",His-tagged human PCNA [5],The interaction with PCNA could be demonstrated
B3,endogenous PCNA in immunocomplexes,endogenous PCNA [6],detected
